From the NIST ThermoML archive (doi:10.1021/acs.jced.8b00452)
Several values for one entry are separate records, joined by “and”; a condition that tells them apart may be missing. Equal entries are not always repeated.

Conditions: isochoric method

C=CC(F)(F)F [1,1,1-trifluoro-2-propene]
Conditions | mass density [kg/m3]
328 K, 2263.6 kPa, Liquid | 899.4
330 K, 1111.5 kPa, Gas | 50
330 K, 3005.2 kPa, Liquid | 899.2
333 K, 4120.1 kPa, Liquid | 899
335 K, 4863.3 kPa, Liquid | 898.9
338 K, 5981.5 kPa, Liquid | 898.8
340 K, 1167.6 kPa, Gas | 49.9
340 K, 6726 kPa, Liquid | 898.7
348 K, 2175.9 kPa, Liquid | 796.5
349 K, 2433.4 kPa, Liquid | 796.4
350 K, 1222.4 kPa, Gas | 49.9
350 K, 2692.4 kPa, Liquid | 796.4
351 K, 2951.1 kPa, Liquid | 796.4
352 K, 3211.8 kPa, Liquid | 796.4
353 K, 3472 kPa, Liquid | 796.3
354 K, 3732.3 kPa, Liquid | 796.3
355 K, 2036.4 kPa, Gas | 99.8
355 K, 3993.5 kPa, Liquid | 796.3
356 K, 4255.7 kPa, Liquid | 796.3
357 K, 4517.5 kPa, Liquid | 796.2
358 K, 4781.3 kPa, Liquid | 796.2
360 K, 1276.2 kPa, Gas | 49.9
360 K, 2101.2 kPa, Gas | 99.8
360 K, 5309.1 kPa, Liquid | 796.2
362 K, 5836.4 kPa, Liquid | 796.1
364 K, 2872 kPa, Fluid (supercritical or subcritical phases) | 699.8
364 K, 6364.7 kPa, Liquid | 796.1
366 K, 3226.1 kPa, Fluid (supercritical or subcritical phases) | 699.8
366 K, 6895.5 kPa, Liquid | 796
368 K, 3583.4 kPa, Fluid (supercritical or subcritical phases) | 699.7
370 K, 1329.2 kPa, Gas | 49.9
370 K, 2227.8 kPa, Gas | 99.8
370 K, 3943.7 kPa, Fluid (supercritical or subcritical phases) | 699.7
372 K, 4306.9 kPa, Fluid (supercritical or subcritical phases) | 699.7
374 K, 4672.5 kPa, Fluid (supercritical or subcritical phases) | 699.6
376 K, 5040.5 kPa, Fluid (supercritical or subcritical phases) | 699.6
378 K, 5410 kPa, Fluid (supercritical or subcritical phases) | 699.5
379 K, 3659.3 kPa, Gas | 408.6
380 K, 1381.9 kPa, Gas | 49.9
380 K, 2351.3 kPa, Gas | 99.8
380 K, 3350.9 kPa, Gas | 199.9
380 K, 3727.7 kPa, Gas | 408.6
380 K, 5781.1 kPa, Fluid (supercritical or subcritical phases) | 699.5
382 K, 6153.3 kPa, Fluid (supercritical or subcritical phases) | 699.5
384 K, 6527.3 kPa, Fluid (supercritical or subcritical phases) | 699.4
385 K, 3499.4 kPa, Gas | 199.9
385 K, 4070.4 kPa, Gas | 408.5
386 K, 6902.3 kPa, Fluid (supercritical or subcritical phases) | 699.4
390 K, 1433.6 kPa, Gas | 49.9
390 K, 2472.5 kPa, Gas | 99.7
390 K, 3645.5 kPa, Gas | 199.8
390 K, 4415.7 kPa, Gas | 408.4
395 K, 3789.8 kPa, Gas | 199.8
395 K, 4762.2 kPa, Gas | 408.3
400 K, 1484.4 kPa, Gas | 49.8
400 K, 2591.1 kPa, Gas | 99.7
400 K, 3931.9 kPa, Gas | 199.7
400 K, 5109.3 kPa, Gas | 408.2
405 K, 4073 kPa, Gas | 199.7
405 K, 5458.7 kPa, Gas | 408.1
410 K, 1534.9 kPa, Gas | 49.8
410 K, 2708 kPa, Gas | 99.6
410 K, 4212.5 kPa, Gas | 199.6
410 K, 5806.1 kPa, Gas | 407.9
415 K, 4350.8 kPa, Gas | 199.5
415 K, 6157.7 kPa, Gas | 407.7
420 K, 1584.7 kPa, Gas | 49.7
420 K, 2823 kPa, Gas | 99.5
420 K, 4487.8 kPa, Gas | 199.4
420 K, 6507.1 kPa, Gas | 407.5
425 K, 4623.8 kPa, Gas | 199.2
425 K, 6857.2 kPa, Gas | 407.2
430 K, 1633.5 kPa, Gas | 49.7
430 K, 2936 kPa, Gas | 99.3
430 K, 4758.7 kPa, Gas | 199.1

mass density
Conditions | Gas | Liquid
360.73 K | – | 723.7 kg/m3
366.5 K | 182.7 kg/m3 | –
369.78 K | 205.8 kg/m3 | –
369.83 K | – | 644 kg/m3
371.67 K | 231.2 kg/m3 | –
371.85 K | – | 616.3 kg/m3
374.16 K | – | 571.5 kg/m3
374.31 K | 255.3 kg/m3 | –
375.35 K | 287.6 kg/m3 | –
376.38 K | – | 508.8 kg/m3
376.41 K | 323.1 kg/m3 | –
376.87 K | – | 451.6 kg/m3
376.93 K | 408.8 kg/m3 and 414.2 kg/m3 | 414.2 kg/m3
